Laboratory results reported in patent publication US6737383B1, “Herbicidal oxadiazolidines” (priority 1999, dated 2004).

Tests used:
[1] = tested on: bedstraw; experiment: Test B pre/postemergence bedstraw; assay type: in vivo, Galium aparine; details: for Bedstraw plant response rating: scale of 0 to 10 where 0 is no effect and 10 is complete control
Outline: (§1)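 Test chemicals in a non-phytotoxic solvent mixture with surfactant were sprayed preemergence onto planted seeds and postemergence onto plants 2 to 18 cm tall (1- to 4-leaf stage). After twelve to sixteen days in a greenhouse, injury was visually rated against untreated controls from 0 (no effect) to 10 (complete control).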

[2] = tested on: sugar beet; experiment: Test B pre/postemergence sugar beet; assay type: in vivo, Beta vulgaris; details: for Sugarbeets plant response rating: scale of 0 to 10 where 0 is no effect and 10 is complete control
Outline: as §1

[3] = tested on: cocklebur; experiment: Test B pre/postemergence cocklebur; assay type: in vivo, Xanthium strumarium; details: for Cocklebur plant response rating: scale of 0 to 10 where 0 is no effect and 10 is complete control
Outline: as §1

[4] = tested on: giant foxtail; experiment: Test B pre/postemergence giant foxtail; assay type: in vivo, Setaria faberii; details: for Giant foxtail plant response rating: scale of 0 to 10 where 0 is no effect and 10 is complete control
Outline: as §1

[5] = tested on: crabgrass; experiment: Test B pre/postemergence crabgrass; assay type: in vivo, Digitaria sanguinalis; details: for Crabgrass plant response rating: scale of 0 to 10 where 0 is no effect and 10 is complete control
Outline: as §1

[6] = tested on: surinam grass; experiment: Test B pre/postemergence surinam grass; assay type: in vivo, Brachiaria decumbens; details: for B. signalgrass plant response rating: scale of 0 to 10 where 0 is no effect and 10 is complete control
Outline: as §1

[7] = tested on: blackgrass; experiment: Test B pre/postemergence blackgrass; assay type: in vivo, Alopecurus myosuroides; details: for Blackgrass plant response rating: scale of 0 to 10 where 0 is no effect and 10 is complete control
Outline: as §1

[8] = tested on: smallflower flatsedge; experiment: Test B flood test smallflower flatsedge; assay type: in vivo, Cyperus difformis
Outline: (§2)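 Each value is a visual injury score relative to controls, with 10 meaning complete control and 0 no effect. Evaluation took place twelve to sixteen days after the 2-leaf-stage plants were treated and kept in the greenhouse.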

[9] = tested on: wheat; experiment: Test B pre/postemergence wheat; assay type: in vivo, Triticum aestivum; details: for Wheat plant response rating: scale of 0 to 10 where 0 is no effect and 10 is complete control
Outline: as §1

[10] = tested on: bamyardgrass; experiment: Test B flood test barnyardgrass; assay type: in vivo, Echinochloa crus-galli
Outline: as §2

[11] = tested on: velvetleaf; experiment: Test B pre/postemergence velvetleaf; assay type: in vivo, Abutilon theophrasti; details: for Velvetleaf plant response rating: scale of 0 to 10 where 0 is no effect and 10 is complete control
Outline: as §1

[12] = tested on: duck salad; experiment: Test B flood test duck salad; assay type: in vivo, Heteranthera limosa
Outline: as §2

[13] = tested on: rice; experiment: Test B flood test rice; assay type: in vivo, Oryza sativa
Outline: as §2

[14] = tested on: soybean; experiment: Test B pre/postemergence soybean; assay type: in vivo, Glycine max; details: for Soybean plant response rating: scale of 0 to 10 where 0 is no effect and 10 is complete control
Outline: as §1

[15] = tested on: rape; experiment: Test B pre/postemergence rape; assay type: in vivo, Brassica napus; details: for Rape plant response rating: scale of 0 to 10 where 0 is no effect and 10 is complete control
Outline: as §1

[16] = tested on: purple nutsedge; experiment: Test B pre/postemergence purple nutsedge; assay type: in vivo, Cyperus rotundus; details: for Nutsedge plant response rating: scale of 0 to 10 where 0 is no effect and 10 is complete control
Outline: as §1

[17] = tested on: corn; experiment: Test B pre/postemergence corn; assay type: in vivo, Zea mays; details: for Corn plant response rating: scale of 0 to 10 where 0 is no effect and 10 is complete control
Outline: as §1

[18] = Postemergence, Rate 125 g/ha, scale 0 to 10, 0 is no effect, 10 is complete control
[19] = Postemergence, Rate 250 g/ha, scale 0 to 10, 0 is no effect, 10 is complete control
[20] = Preemergence, Rate 62 g/ha, scale 0 to 10 (0 no effect, 10 complete control)
[21] = Rate 500 g/ha, Postemergence, scale 0 to 10, 0 no effect, 10 complete control
[22] = Rate 62 g/ha, flood test species, Pre-emergence, visual evaluation after twelve to sixteen days
[23] = Rate 125 g/ha, under heading Pre-emergence, flood test species, visual evaluation after twelve to sixteen days
[24] = Rate 250 g/ha, Pre-emergence, flood-test species, scale 0 to 10, 0 is no effect, 10 is complete control
[25] = Rate 500 g/ha, Pre-emergence, flood test species, scale 0 to 10 (0 no effect, 10 complete control)

SMILES: CCOc1nc(C(F)(F)F)c(Cn2c(=O)on(C(=O)N(c3ccc(F)cc3)C(C)C)c2=O)s1 [Compound 381]
- Plant response rating, Bedstraw [1, 18]: 0
- Plant response rating, Bedstraw [1, 19]: 0
- Plant response rating, Bedstraw [1, 20]: 0
- Bedstraw plant response rating (0 to 10 scale) ([1]; Preemergence, Rate 125 g/ha): 0
- Bedstraw plant response rating ([1]; Preemergence, Rate 250 g/ha): 0
- Bedstraw plant response rating ([1]; Preemergence, Rate 500 g/ha): 0
- Bedstraw plant response rating ([1]; Rate 62 g/ha, Postemergence): 0
- Plant response rating, Bedstraw [1, 21]: 0
- Plant response rating, Sugarbeets [2, 18]: 0
- Plant response rating, Sugarbeets [2, 19]: 0
- Plant response rating, Sugarbeets [2, 20]: 0
- Sugarbeets plant response rating (0 to 10 scale) ([2]; Preemergence, Rate 125 g/ha): 0
- Sugarbeets plant response rating ([2]; Preemergence, Rate 250 g/ha): 0
- Sugarbeets plant response rating ([2]; Preemergence, Rate 500 g/ha): 0
- Sugarbeets plant response rating ([2]; Rate 62 g/ha, Postemergence): 0
- Plant response rating, Sugarbeets [2, 21]: 0
- Plant response rating, Cocklebur [3, 18]: 0
- Plant response rating, Cocklebur [3, 19]: 0
- Plant response rating, Cocklebur [3, 20]: 0
- Cocklebur plant response rating (0 to 10 scale) ([3]; Preemergence, Rate 125 g/ha): 0
- Cocklebur plant response rating ([3]; Preemergence, Rate 250 g/ha): 0
- Cocklebur plant response rating ([3]; Preemergence, Rate 500 g/ha): 0
- Cocklebur plant response rating ([3]; Rate 62 g/ha, Postemergence): 0
- Plant response rating, Cocklebur [3, 21]: 0
- Plant response rating, Giant foxtail [4, 18]: 0
- Plant response rating, Giant foxtail [4, 19]: 0
- Plant response rating, Giant foxtail [4, 20]: 0
- Giant foxtail plant response rating (0 to 10 scale) ([4]; Preemergence, Rate 125 g/ha): 0
- Giant foxtail plant response rating ([4]; Preemergence, Rate 250 g/ha): 5
- Giant foxtail plant response rating ([4]; Preemergence, Rate 500 g/ha): 9
- Giant foxtail plant response rating ([4]; Rate 62 g/ha, Postemergence): 0
- Plant response rating, Giant foxtail [4, 21]: 0
- Plant response rating, Crabgrass [5, 18]: 0
- Plant response rating, Crabgrass [5, 19]: 0
- Plant response rating, Crabgrass [5, 20]: 0
- Crabgrass plant response rating (0 to 10 scale) ([5]; Preemergence, Rate 125 g/ha): 0
- Crabgrass plant response rating ([5]; Preemergence, Rate 250 g/ha): 3
- Crabgrass plant response rating ([5]; Preemergence, Rate 500 g/ha): 9
- Crabgrass plant response rating ([5]; Rate 62 g/ha, Postemergence): 0
- Plant response rating, Crabgrass [5, 21]: 0
- Plant response rating, B. signalgrass [6, 18]: 0
- Plant response rating, B. signalgrass [6, 19]: 0
- Plant response rating, B. signalgrass [6, 20]: 0
- B. signalgrass plant response rating (0 to 10 scale, 0 is no effect, 10 is complete control) ([6]; Preemergence, Rate 125 g/ha): 0
- B. signalgrass plant response rating ([6]; Preemergence, Rate 250 g/ha): 0
- B. signalgrass plant response rating ([6]; Preemergence, Rate 500 g/ha): 0
- B. signalgrass plant response rating ([6]; Rate 62 g/ha, Postemergence): 0
- Plant response rating, B. signalgrass [6, 21]: 0
- Plant response rating, Blackgrass [7, 18]: 0
- Plant response rating, Blackgrass [7, 19]: 0
- Plant response rating, Blackgrass [7, 20]: 0
- Blackgrass plant response rating (0 to 10 scale) ([7]; Preemergence, Rate 125 g/ha): 0
- Blackgrass plant response rating ([7]; Preemergence, Rate 250 g/ha): 0
- Blackgrass plant response rating ([7]; Preemergence, Rate 500 g/ha): 2
- Blackgrass plant response rating ([7]; Rate 62 g/ha, Postemergence): 0
- Plant response rating, Blackgrass [7, 21]: 0
- Plant response rating, S. Flatsedge (0 to 10 scale, 0 is no effect, 10 is complete control) [8, 22]: 0
- S. Flatsedge plant response rating (0 to 10 scale, 0 is no effect, 10 is complete control) [8, 23]: 0
- S. Flatsedge plant response rating [8, 24]: 0
- S. Flatsedge plant response rating [8, 25]: 0
- Plant response rating, Wheat [9, 18]: 0
- Plant response rating, Wheat [9, 19]: 0
- Plant response rating, Wheat [9, 20]: 0
- Wheat plant response rating (0 to 10 scale) ([9]; Preemergence, Rate 125 g/ha): 0
- Wheat plant response rating ([9]; Preemergence, Rate 250 g/ha): 0
- Wheat plant response rating ([9]; Preemergence, Rate 500 g/ha): 0
- Wheat plant response rating ([9]; Rate 62 g/ha, Postemergence): 0
- Plant response rating, Wheat [9, 21]: 0
- Plant response rating, Barnyardgrass (0 to 10 scale, 0 is no effect, 10 is complete control) [10, 22]: 0
- Barnyardgrass plant response rating (0 to 10 scale, 0 is no effect, 10 is complete control) [10, 23]: 0
- Barnyardgrass plant response rating [10, 24]: 0
- Barnyardgrass plant response rating [10, 25]: 0
- Plant response rating, Velvetleaf [11, 18]: 0
- Plant response rating, Velvetleaf [11, 19]: 0
- Plant response rating, Velvetleaf [11, 20]: 0
- Velvetleaf plant response rating (0 to 10 scale) ([11]; Preemergence, Rate 125 g/ha): 0
- Velvetleaf plant response rating ([11]; Preemergence, Rate 250 g/ha): 0
- Velvetleaf plant response rating ([11]; Preemergence, Rate 500 g/ha): 0
- Velvetleaf plant response rating ([11]; Rate 62 g/ha, Postemergence): 0
- Plant response rating, Velvetleaf [11, 21]: 0
- Plant response rating, Ducksalad (0 to 10 scale, 0 is no effect, 10 is complete control) [12, 22]: 0
- Ducksalad plant response rating (0 to 10 scale, 0 is no effect, 10 is complete control) [12, 23]: 0
- Ducksalad plant response rating [12, 24]: 0
- Ducksalad plant response rating [12, 25]: 0
- Plant response rating, Rice (0 to 10 scale, 0 is no effect, 10 is complete control) [13, 22]: 0
- Rice plant response rating (0 to 10 scale, 0 is no effect, 10 is complete control) [13, 23]: 0
- Rice plant response rating [13, 24]: 0
- Rice plant response rating [13, 25]: 0
- Plant response rating, Soybean [14, 18]: 2
- Plant response rating, Soybean [14, 19]: 2
- Plant response rating, Soybean [14, 20]: 0
- Soybean plant response rating (0 to 10 scale) ([14]; Preemergence, Rate 125 g/ha): 0
- Soybean plant response rating ([14]; Preemergence, Rate 250 g/ha): 0
- Soybean plant response rating ([14]; Preemergence, Rate 500 g/ha): 0
- Soybean plant response rating ([14]; Rate 62 g/ha, Postemergence): 1
- Plant response rating, Soybean [14, 21]: 2
- Plant response rating, Rape [15, 18]: 0
- Plant response rating, Rape [15, 19]: 0
- Plant response rating, Rape [15, 20]: 0
- Rape plant response rating (0 to 10 scale) ([15]; Preemergence, Rate 125 g/ha): 0
- Rape plant response rating ([15]; Preemergence, Rate 250 g/ha): 0
- Rape plant response rating ([15]; Preemergence, Rate 500 g/ha): 0
- Rape plant response rating ([15]; Rate 62 g/ha, Postemergence): 0
- Plant response rating, Rape [15, 21]: 6
- Plant response rating, Nutsedge [16, 18]: 0
- Plant response rating, Nutsedge [16, 19]: 0
- Plant response rating, Nutsedge [16, 20]: 0
- Nutsedge plant response rating (0 to 10 scale) ([16]; Preemergence, Rate 125 g/ha): 0
- Nutsedge plant response rating ([16]; Preemergence, Rate 250 g/ha): 0
- Nutsedge plant response rating ([16]; Preemergence, Rate 500 g/ha): 0
- Nutsedge plant response rating ([16]; Rate 62 g/ha, Postemergence): 0
- Plant response rating, Nutsedge [16, 21]: 0
- Plant response rating, Corn [17, 18]: 0
- Plant response rating, Corn [17, 19]: 0
- Plant response rating, Corn [17, 20]: 0
- Corn plant response rating (0 to 10 scale) ([17]; Preemergence, Rate 125 g/ha): 0
- Corn plant response rating ([17]; Preemergence, Rate 250 g/ha): 0
- Corn plant response rating ([17]; Preemergence, Rate 500 g/ha): 2
- Corn plant response rating ([17]; Rate 62 g/ha, Postemergence): 0
- Plant response rating, Corn [17, 21]: 0
